Data reported in the NIST ThermoML archive (doi:10.1016/j.jct.2004.11.007).
Numbers after ± are expanded uncertainties.

Legend:
[1] = for Triple point temperature: Crystal; for vapor or sublimation pressure: Liquid
[2] = Molar enthalpy of transition or fusion; conditions: Crystal; DSC
[3] = Solid-liquid equilibrium temperature; conditions: 100 kPa; Crystal

Compound | Triple point temperature ([1]; visual observation) | vapor or sublimation pressure ([1]; 373.15 K) | vapor or sublimation pressure ([1]; 333.15 K) | other results
O=C1CCCC1 [cyclopentanone] | 220.77 ± 0.39 K | – | – | –
CCC(=O)CC [pentan-3-one] | 234.36 ± 0.39 K | 95.9 ± 4.9 kPa | – | –
CN1CCCC1=O [N-methylpyrrolidone] | 249.68 ± 0.39 K | 3.6 ± 2.6 kPa | 0.5 kPa | Molar enthalpy of transition or fusion [2]: 2.64 ± 0.0693 kcal/mol
CCCCC(C)=O [2-hexanone] | – | 43.8 ± 1.8 kPa | – | Solid-liquid equilibrium temperature [3]: 215.57 ± 2 K; Triple point temperature [1]: 218.42 ± 2 K
CC(C)=O [acetone] | – | – | 115.7 ± 5.4 kPa | –
CCCC(=O)CCC [4-heptanone] | 241.77 ± 0.39 K | – | – | –
